These results are taken from ChEMBL document CHEMBL2424529, “Nonpeptidic propargylamines as inhibitors of lysine specific demethylase 1 (LSD1) with cellular activity” (J Med Chem, 2013).

Experiment [1] addresses T1, Amine oxidase [flavin-containing] A (Homo sapiens, UniProt P21397).
T1 sequence (P21397 whole entry): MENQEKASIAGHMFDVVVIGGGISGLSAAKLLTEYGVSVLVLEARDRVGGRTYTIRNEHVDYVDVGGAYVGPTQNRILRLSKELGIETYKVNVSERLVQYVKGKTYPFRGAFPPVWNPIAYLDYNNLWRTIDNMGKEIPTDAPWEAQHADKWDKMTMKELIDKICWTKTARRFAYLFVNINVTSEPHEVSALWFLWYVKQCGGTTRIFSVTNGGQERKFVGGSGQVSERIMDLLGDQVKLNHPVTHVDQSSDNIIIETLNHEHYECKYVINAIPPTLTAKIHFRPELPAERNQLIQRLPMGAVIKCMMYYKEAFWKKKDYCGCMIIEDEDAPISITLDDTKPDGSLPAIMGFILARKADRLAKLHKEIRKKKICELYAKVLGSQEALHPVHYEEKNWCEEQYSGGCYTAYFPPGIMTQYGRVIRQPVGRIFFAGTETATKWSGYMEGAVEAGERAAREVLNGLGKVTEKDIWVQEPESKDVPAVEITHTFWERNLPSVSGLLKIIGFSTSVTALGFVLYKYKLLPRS
Conditions: 1 h, read-out: INH.
Description: Inhibition of MAOA (unknown origin) using kynuramine as substrate at 100 uM after 1 hr by fluorescence assay relative to control

For experiment [2], the target named is T2, Amine oxidase [flavin-containing] B (Homo sapiens, UniProt P27338).
T2 sequence (P27338 whole entry): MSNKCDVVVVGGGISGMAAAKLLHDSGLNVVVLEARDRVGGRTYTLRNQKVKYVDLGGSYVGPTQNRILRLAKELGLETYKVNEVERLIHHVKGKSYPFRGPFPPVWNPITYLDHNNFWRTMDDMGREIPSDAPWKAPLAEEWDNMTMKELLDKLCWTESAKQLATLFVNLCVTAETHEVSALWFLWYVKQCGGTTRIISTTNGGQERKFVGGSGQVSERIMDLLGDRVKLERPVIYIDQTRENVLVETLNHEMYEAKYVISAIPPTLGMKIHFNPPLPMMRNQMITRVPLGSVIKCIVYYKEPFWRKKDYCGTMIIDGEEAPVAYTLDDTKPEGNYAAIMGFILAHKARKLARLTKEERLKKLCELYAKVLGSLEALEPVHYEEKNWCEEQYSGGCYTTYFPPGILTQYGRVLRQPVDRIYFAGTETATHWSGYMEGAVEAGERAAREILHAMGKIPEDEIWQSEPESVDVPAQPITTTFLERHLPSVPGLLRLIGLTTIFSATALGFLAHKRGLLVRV
Conditions: 1 h, read-out: INH.
Description: Inhibition of MAOB (unknown origin) using kynuramine as substrate at 100 uM after 1 hr by fluorescence assay relative to control

The target in experiment [3] is T1, Amine oxidase [flavin-containing] A. Kind of experiment: Inhibition of MAOA (unknown origin) using kynuramine as substrate after 1 hr by fluorescence assay.
Experiment [4] addresses T2, Amine oxidase [flavin-containing] B. Kind of experiment: Inhibition of MAOB (unknown origin) using kynuramine as substrate after 1 hr by fluorescence assay.
The target is the same in experiment [5]. Conditions: 1 h, read-out: INH. The source holds these as a separate data set.
Description: Inhibition of MAOB (unknown origin) using kynuramine as substrate at 10 uM after 1 hr by fluorescence assay relative to control
Experiment [6] addresses T1, Amine oxidase [flavin-containing] A. The note with it: 1 h, read-out: INH. This is another data set of the same source.
Description: Inhibition of MAOA (unknown origin) using kynuramine as substrate at 10 uM after 1 hr by fluorescence assay relative to control
The target of experiment [7] is T3, Lysine-specific histone demethylase 1A (Homo sapiens, UniProt O60341). In words: Inhibition of LSD1 (unknown origin) expressed in Sf9 cells using H3K4(me2) as substrate at 200 uM preincubated for 30 mins prior to substrate addition measured after 90 mins by horseradish peroxidase assay relative to control.
Experiment [8] has as its target T2, Amine oxidase [flavin-containing] B. Conditions: 1 h, read-out: INH. This is another data set of the same source.
Description: Inhibition of MAOB (unknown origin) using kynuramine as substrate at 500 uM after 1 hr by fluorescence assay relative to control
Experiment [9] deals with T3, Lysine-specific histone demethylase 1A. In words: biochemical. Format: cell-based, Sf9.
Description: Inhibition of LSD1 (unknown origin) expressed in Sf9 cells using H3K4(me2) as substrate preincubated for 30 mins prior to substrate addition measured after 90 mins by horseradish peroxidase assay

For the compound `C#CCN(C)CCCC[C@H](NC(=O)OCc1ccccc1)C(=O)OCc1ccccc1`, in experiment [1], the inhibition at 100 µM is 36%.

Turning to `OC(CNC1CC1)COc1ccccc1-c1ccccc1` (stereo unspecified), the inhibition at 100 µM in experiment [2] was 45%.

As usually defined, the IC50 is the concentration needed to halve the response being measured. A high value points to lower potency. Regarding `C#CCNCC(O)COc1ccc(-c2ccccc2)cc1` (stereo unspecified), the IC50 in experiment [3] was 0.55 µM; in experiment [4], 0.06 µM.

Take `OC(CNC1CC1)COc1ccc2ccccc2c1` (stereo unspecified): the inhibition at 10 µM in experiment [5] amounted to 94%.

On to `C#CCNCCCOc1cccc(C(=O)NCc2ccccc2)c1`, for which the IC50 in experiment [4] came to 5.7 µM.

As to `C#CCNCCCOc1cccc(C(=O)NC(C)C)c1`, the IC50 in [4] is 17 µM. Moreover, the inhibition at 100 µM in experiment [1] was 100%.

For `C#CCNCC(O)COc1ccccc1-c1ccccc1` (stereo unspecified), the inhibition at 10 µM in experiment [6] worked out at 5%. For the same compound, the inhibition in [7] was determined as 36.3%. For the same compound, the inhibition at 100 µM in [2] worked out at 27%.

Consider `C#CCN(C)CCCOc1cccc(NC(=O)c2ccccc2)c1`, for which, in [6], the inhibition at 10 µM turned out to be 73%. This compound also gave an IC50 in experiment [4] of 0.1 µM.

As to `OC(CNC1CC1)COc1ccc(-c2ccccc2)cc1` (stereo unspecified), the inhibition at 10 µM in experiment [5] and in experiment [6] was 100% each time.

`C#CCNCCCC[C@H](NC(=O)OCc1ccccc1)C(=O)OCc1ccccc1`: the inhibition at 500 µM in experiment [8] amounted to 67%.

Take `C#CCN(C)CC(O)COc1ccccc1-c1ccccc1` (stereo unspecified): the inhibition at 100 µM in experiment [2] is 30%.

For `C#CCNCCCOc1cccc(NC(=O)c2ccccc2)c1`, the inhibition at 10 µM in [6] turned out to be 62%.

`C#CCN(C)CC(O)COc1cccc2ccccc12` (stereo unspecified): the inhibition at 100 µM in experiment [2] came to 32%.

Take `C#CCN(C)CC(O)COc1ccc2ccccc2c1` (stereo unspecified): in experiment [5], the inhibition at 10 µM stood at 29%.

Take `C#CCN(C)CC(O)COc1ccc(-c2ccccc2)cc1` (stereo unspecified): the inhibition at 10 µM in experiment [5] is 100%.

With `C#CCN(C)CC(O)COc1ccc2cc(Br)ccc2c1` (stereo unspecified), in experiment [5], the inhibition at 10 µM came to 100%.

In experiment [9], `CC#CCNCCCC[C@H](NC(=O)c1ccccc1)C(=O)OC(C)(C)C` yielded a 50% inhibitory concentration (IC50) of 132 µM. Further, in experiment [8], the inhibition at 500 µM was 51%. Besides, the inhibition at 100 µM in experiment [1] amounted to 45%.

Regarding `C#CCNCCCC[C@H](NC(=O)c1ccccc1)C(=O)OC(C)(C)C`, the IC50 in experiment [9] stood at 144 µM.

In the case of `C#CCNCC(O)COc1ccc2ccccc2c1` (stereo unspecified), the values for the inhibition at 10 µM in [5] and in experiment [6] were 19% and 65%, respectively.

As to `OC(CNC1CC1)COc1ccc2cc(Br)ccc2c1` (stereo unspecified), in [9], the IC50 is 111 µM. In addition, the inhibition at 10 µM in experiment [5] and in [6] was 100% each time.
